Test results from patent US12662479B2 (Foghorn Therapeutics Inc., priority 2020, dated 2026).
Counter-ions that a name gives are not always drawn.

Legend:
[1] = biological target: T1, HiBit-BRG1 fusion protein (Homo sapiens, UniProt P51532); assay: HiBiT-BRG1 cell-based degradation assay (Nano-Glo HiBiT Lytic Detection, 24 h); settings: HeLa cells expressing HiBit-BRG1 and LgBit; for DC50: read-out: BRG1 HiBit Degradation IC50; for Dmax: HeLa, top dose 30 μM, read-out: BRG1 HiBit Degradation Maximum measured
T1 construct: expressed in transfected cells
T1 sequence (P51532 whole entry, the tested form may be a part): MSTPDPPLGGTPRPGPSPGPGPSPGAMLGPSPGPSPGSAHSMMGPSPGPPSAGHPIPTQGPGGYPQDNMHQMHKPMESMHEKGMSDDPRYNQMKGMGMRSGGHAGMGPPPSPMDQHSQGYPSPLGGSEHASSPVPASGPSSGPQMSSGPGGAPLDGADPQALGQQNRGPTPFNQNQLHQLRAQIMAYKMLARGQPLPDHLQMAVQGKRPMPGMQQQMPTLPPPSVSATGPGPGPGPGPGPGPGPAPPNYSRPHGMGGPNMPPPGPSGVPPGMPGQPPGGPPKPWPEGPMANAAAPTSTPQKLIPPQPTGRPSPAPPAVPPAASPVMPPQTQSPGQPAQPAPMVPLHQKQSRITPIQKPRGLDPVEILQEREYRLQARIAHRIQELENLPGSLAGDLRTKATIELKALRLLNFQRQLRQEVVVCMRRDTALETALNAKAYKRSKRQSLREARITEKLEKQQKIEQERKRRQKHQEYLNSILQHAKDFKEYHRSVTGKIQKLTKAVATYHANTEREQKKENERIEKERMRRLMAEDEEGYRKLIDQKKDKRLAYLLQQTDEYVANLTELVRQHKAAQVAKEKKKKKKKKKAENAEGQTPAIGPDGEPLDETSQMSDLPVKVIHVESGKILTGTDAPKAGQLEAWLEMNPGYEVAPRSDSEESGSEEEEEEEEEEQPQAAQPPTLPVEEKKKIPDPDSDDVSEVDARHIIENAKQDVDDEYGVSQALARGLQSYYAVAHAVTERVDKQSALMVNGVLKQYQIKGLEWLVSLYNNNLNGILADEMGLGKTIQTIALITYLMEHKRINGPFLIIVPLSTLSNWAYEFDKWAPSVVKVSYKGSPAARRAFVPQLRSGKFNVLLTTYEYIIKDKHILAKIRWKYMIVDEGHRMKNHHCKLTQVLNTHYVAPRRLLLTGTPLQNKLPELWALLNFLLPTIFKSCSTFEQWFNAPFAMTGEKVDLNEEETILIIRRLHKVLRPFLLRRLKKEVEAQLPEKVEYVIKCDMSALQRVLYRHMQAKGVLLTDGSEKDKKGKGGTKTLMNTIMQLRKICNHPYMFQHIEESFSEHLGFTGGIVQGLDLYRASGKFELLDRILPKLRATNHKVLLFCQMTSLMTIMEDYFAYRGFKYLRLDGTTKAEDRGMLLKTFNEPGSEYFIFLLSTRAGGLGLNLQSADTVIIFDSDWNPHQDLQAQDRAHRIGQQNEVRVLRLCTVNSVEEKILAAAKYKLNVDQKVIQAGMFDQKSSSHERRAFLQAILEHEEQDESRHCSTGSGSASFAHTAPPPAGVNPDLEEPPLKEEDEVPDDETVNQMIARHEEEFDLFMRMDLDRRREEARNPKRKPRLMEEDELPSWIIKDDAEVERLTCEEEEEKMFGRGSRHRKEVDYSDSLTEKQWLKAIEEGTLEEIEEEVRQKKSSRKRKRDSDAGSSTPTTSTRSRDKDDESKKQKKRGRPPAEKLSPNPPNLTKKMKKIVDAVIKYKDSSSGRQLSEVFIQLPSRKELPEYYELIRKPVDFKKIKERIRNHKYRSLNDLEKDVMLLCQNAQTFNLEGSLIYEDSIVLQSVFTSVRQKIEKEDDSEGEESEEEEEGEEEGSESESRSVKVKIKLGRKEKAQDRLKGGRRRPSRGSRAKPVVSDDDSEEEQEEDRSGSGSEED
How it was run: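 Stable HeLa line expressing HiBiT-BRG1 and LgBiT, seeded at 5000 cells/well; luminescence read after lytic Nano-Glo HiBiT reagent and 10 min shaking at RT. % degradation normalised between DMSO (high control) and 2 μM reference BRM/BRG1 degrader (low control).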

HiBit-BRM fusion protein = biological target: T2, HiBit-BRM fusion protein (Homo sapiens, UniProt P51531); assay: HiBiT-BRM cell-based degradation assay (Nano-Glo HiBiT Lytic Detection, 24 h); settings: HeLa cells expressing HiBiT-BRM; for DC50: read-out: BRM HiBit Degradation IC50; for BRM HiBit Degradation Maximum measured: top dose 30 μM
T2 construct: expressed in transfected cells
T2 sequence (P51531 whole entry, the tested form may be a part): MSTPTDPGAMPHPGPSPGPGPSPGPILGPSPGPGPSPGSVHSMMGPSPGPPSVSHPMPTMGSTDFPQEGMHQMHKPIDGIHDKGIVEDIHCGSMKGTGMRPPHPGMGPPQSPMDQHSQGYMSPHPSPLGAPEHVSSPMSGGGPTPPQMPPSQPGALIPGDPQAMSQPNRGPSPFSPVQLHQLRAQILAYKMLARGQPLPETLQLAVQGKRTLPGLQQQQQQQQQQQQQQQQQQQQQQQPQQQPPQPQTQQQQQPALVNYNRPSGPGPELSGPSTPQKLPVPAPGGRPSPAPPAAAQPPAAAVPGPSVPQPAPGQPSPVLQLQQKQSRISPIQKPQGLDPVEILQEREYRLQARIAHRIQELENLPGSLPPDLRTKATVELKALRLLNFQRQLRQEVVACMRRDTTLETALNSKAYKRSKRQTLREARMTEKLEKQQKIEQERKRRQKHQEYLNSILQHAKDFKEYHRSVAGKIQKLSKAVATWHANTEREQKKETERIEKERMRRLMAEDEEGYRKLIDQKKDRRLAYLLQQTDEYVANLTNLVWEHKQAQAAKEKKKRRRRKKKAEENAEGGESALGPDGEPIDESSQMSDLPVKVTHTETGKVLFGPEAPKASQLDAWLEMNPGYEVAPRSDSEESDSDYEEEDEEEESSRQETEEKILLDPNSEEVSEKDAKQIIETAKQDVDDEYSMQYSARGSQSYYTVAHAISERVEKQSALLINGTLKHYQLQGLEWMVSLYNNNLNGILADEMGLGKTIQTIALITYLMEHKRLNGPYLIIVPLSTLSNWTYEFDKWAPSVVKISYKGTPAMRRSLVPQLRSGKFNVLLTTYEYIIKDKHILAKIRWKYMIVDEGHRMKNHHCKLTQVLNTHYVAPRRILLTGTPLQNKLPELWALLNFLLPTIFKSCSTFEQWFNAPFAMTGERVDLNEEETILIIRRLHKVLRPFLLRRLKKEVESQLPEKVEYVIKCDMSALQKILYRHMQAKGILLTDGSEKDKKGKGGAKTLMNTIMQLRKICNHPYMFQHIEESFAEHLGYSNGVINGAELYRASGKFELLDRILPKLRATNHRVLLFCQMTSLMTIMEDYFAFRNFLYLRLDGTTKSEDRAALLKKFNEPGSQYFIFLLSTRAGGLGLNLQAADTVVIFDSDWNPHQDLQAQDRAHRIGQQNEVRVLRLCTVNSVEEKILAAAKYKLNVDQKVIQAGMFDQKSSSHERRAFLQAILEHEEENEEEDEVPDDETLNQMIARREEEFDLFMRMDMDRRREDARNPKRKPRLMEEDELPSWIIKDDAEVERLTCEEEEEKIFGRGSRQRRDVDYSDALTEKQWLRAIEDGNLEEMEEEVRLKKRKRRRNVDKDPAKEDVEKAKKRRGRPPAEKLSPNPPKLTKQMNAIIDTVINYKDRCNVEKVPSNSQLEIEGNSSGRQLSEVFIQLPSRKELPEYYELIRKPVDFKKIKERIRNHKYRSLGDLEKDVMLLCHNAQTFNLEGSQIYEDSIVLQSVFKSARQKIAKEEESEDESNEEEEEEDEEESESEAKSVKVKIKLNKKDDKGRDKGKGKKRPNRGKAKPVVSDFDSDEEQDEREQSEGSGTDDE
How it was run: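 HeLa cells stably expressing HiBiT-BRM were treated for 24 h with compounds (10-point 3-fold dilutions, 30 μM final top dose, in duplicate). HiBiT was detected by lytic LgBiT complementation luminescence. % degradation was normalized to DMSO (high control) and 2 μM of a reference BRM/BRG1 degrader (low control).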

SMILES | DC50 [1] [µM] | Dmax [1] [%] | DC50 (HiBit-BRM fusion protein) [µM] | BRM HiBit Degradation Maximum measured (HiBit-BRM fusion protein)
Cc1ncsc1-c1ccc(CNC(=O)[C@@H]2C[C@@H](O)CN2C(=O)[C@@H](NC(=O)CCCCCCCNC(=O)CCCOCC[C@H](NC(=O)c2ccn(S(C)(=O)=O)c2)C(=O)Nc2nc(-c3ccccc3)cs2)C(C)(C)C)cc1 [Compound 218, (2S,4R)-4-hydroxy-1-[(2S)-2-(8-[4-[(3S)-3-[(1-methanesulfonylpyrrol-3-yl)formamido]-3-[(4-phenyl-1,3-thiazol-2-yl)carbamoyl]propoxy]butanamido]octanamido)-3,3-dimethylbutanoyl]-N-[[4-(4-methyl-1,3-thiazol-5-yl)phenyl]methyl]pyrrolidine-2-carboxamide] | > 10 | < 50 | > 10 | C (‘C’ = Maximum degradation <50%)
CS(=O)(=O)n1ccc(C(=O)N[C@@H](CCOCCCC(=O)N2CCN(CCOc3ccc4c(c3)C(=O)N(C3CCC(=O)NC3=O)C4=O)CC2)C(=O)Nc2nc(-c3ccccc3)cs2)c1 (stereo partly drawn) [Compound 219, (2S)-4-[4-[4-(2-[[2-(2,6-dioxopiperidin-3-yl)-1,3-dioxoisoindol-5-yl]oxy]ethyl)piperazin-1-yl]-4-oxobutoxy]-2-[(1-methanesulfonylpyrrol-3-yl)formamido]-N-(4-phenyl-1,3-thiazol-2-yl)butanamide] | > 10 | < 50 | > 10 | C (‘C’ = Maximum degradation <50%)
CS(=O)(=O)n1ccc(C(=O)N[C@@H](CCOCCCC(=O)N2CCC(CN3CCN(c4ccc5c(c4)C(=O)N(C4CCC(=O)NC4=O)C5=O)CC3)CC2)C(=O)Nc2nc(-c3ccccc3)cs2)c1 (stereo partly drawn) [Compound 220, N-((2S)-4-(4-(4-((4-(2-(2,6-dioxopiperidin-3-yl)-1,3-dioxoisoindolin-5-yl)piperazin-1-yl)methyl)piperidin-1-yl)-4-oxobutoxy)-1-oxo-1-((4-phenylthiazol-2-yl)amino)butan-2-yl)-1-(methylsulfonyl)-1H-pyrrole-3-carboxamide formate] | > 10 | < 50 | > 10 | C (‘C’ = Maximum degradation <50%)
CS(=O)(=O)n1ccc(C(=O)N[C@@H](CCOCCCC(=O)N2CC(CN3CCN(c4ccc5c(c4)C(=O)N(C4CCC(=O)NC4=O)C5=O)CC3)C2)C(=O)Nc2nc(-c3ccccc3)cs2)c1 (stereo partly drawn) [Compound 221, (2S)-4-[4-[3-([4-[2-(2,6-dioxopiperidin-3-yl)-1,3-dioxoisoindol-5-yl]piperazin-1-yl]methyl)azetidin-1-yl]-4-oxobutoxy]-2-[(1-methanesulfonylpyrrol-3-yl)formamido]-N-(4-phenyl-1,3-thiazol-2-yl)butanamide] | > 10 | < 50 | > 10 | C (‘C’ = Maximum degradation <50%)
CS(=O)(=O)n1ccc(C(=O)N[C@@H](CCOCCCC(=O)N2CC3(CCN(CCCNc4ccc5c(c4)C(=O)N(C4CCC(=O)NC4=O)C5=O)CC3)C2)C(=O)Nc2nc(-c3ccccc3)cs2)c1 (stereo partly drawn) [Compound 222, (2S)-4-[4-[7-(3-[[2-(2,6-dioxopiperidin-3-yl)-1,3-dioxoisoindol-5-yl]amino]propyl)-2,7-diazaspiro[3.5]nonan-2-yl]-4-oxobutoxy]-2-[(1-methanesulfonylpyrrol-3-yl)formamido]-N-(4-phenyl-1,3-thiazol-2-yl)butanamide; formic acid] | > 10 | < 50 | > 10 | C (‘C’ = Maximum degradation <50%)
CS(=O)(=O)n1ccc(C(=O)N[C@@H](CCOCCCC(=O)NCCOCCOCCNC(=O)COc2cccc3c2C(=O)N(C2CCC(=O)NC2=O)C3=O)C(=O)Nc2nc(-c3ccccc3)cs2)c1 (stereo partly drawn) [Compound 223, (2S)-4-[3-[(2-[2-[2-(2-[[2-(2,6-dioxopiperidin-3-yl)-1,3-dioxoisoindol-4-yl]oxy]acetamido)ethoxy]ethoxy]ethyl)carbamoyl]propoxy]-2-[(1-methanesulfonylpyrrol-3-yl)formamido]-N-(4-phenyl-1,3-thiazol-2-yl)butanamide] | > 10 | < 50 | > 10 | C (‘C’ = Maximum degradation <50%)
